These results are taken from patent publication US5962291A, “Metal dependent catalytic antibodies and method for producing the same” (The Regents of the University of Colorado, priority 1997, dated 1999).

Common to all, as to type: biochemical, mice
The subject of test [1] is monoclonal antibody 6A1A6 (metal dependent catalytic antibody, IgG). As to the kind of experiment: Hydrolysis of 14C-labeled ATP, ADP and AMP by antibody 6A1A6, silica TLC analysis. The conditions noted are these: for Km / Vmax: 37° C., 0.5 mM EDTA, 1 mM MgCl2, 40 mM CHES, pH 9.0, 1.9 μM antibody. As to the method:
General. […] EDTA was added to reactions to a concentration that removed the catalytic activity. MgCl2 or other metal salts were then added back to the reactions at the optimum level. Antibody concentration was adjusted for each system to obtain useable data in a reasonable reaction time and varied from 0.5-4 μM.
(§1) Kinetic analyses were done by standard methods as described. Rates were defined as initial velocities and reported in min^-1 or sec^-1. Each assay was done in duplicate or triplicate to allow for error analysis. Background rates were measured using an identical reaction mixture without antibody present. Michales-Menten parameters kcat and Km were derived from Eadie-Hofstee or weighted Lineweaver-Burk plots (using the computer program Enzyme Kinetics 1.0, Macintosh, Trinity Software). Inhibitory constants, Ki, were derived from Dixon or Lineweaver-Burk plots.
Thin Layer Chromatography. Reactions were quenched and analyzed by spotting on a TLC plate. Two systems were used. PEI-cellulose coated plates were run in 1.5 M formic acid/0.5 M LiCl (Rf values: […], 0.3; Pi, 0.8). (In some cases it was useful to pre-run the TLC plate in H2 O to reduce smearing). Silica coated plates were run in isopropanol:NH4OH:H2 O, (50:25:25) (Rf values: ATP, 0.36; ADP, 0.55; AMP, 0.7; and Adenosine, 0.95). Assays involving the visualization of pyrophosphate used two TLC systems simultaneously: the silica system described (Rf values: PPi,O; Pi, 0.3), and a PEI-cellulose system run in 0.3 M sodium phosphate, pH=7.0 (Rf values: ATP, 0.2; ADP, 0.4; AMP, 0.6; PPi, 0.15; and Pi, 0.65). Radioactivity was quantitated using a Molecular Dynamics Phosphorlmager.
Kinetic Assays Using ^14 C-Labeled Compounds. Assays were performed with [8-^14 C]ATP, [8-^14 C]ADP, and [^14 C(U)]AMP. […] Immediately before each reaction, the solution was evaporated to dryness in vacuo and the compound resuspended in an equal volume of water. […] Reactions were quenched and analyzed by the silica TLC system.

Test [2] concerns the target monoclonal antibody 6A1A6 (metal dependent catalytic antibody, IgG). As to the kind of experiment: Spectrophotometric (405 nm) hydrolysis of p-nitrophenyl ester substrates by antibody 6A1A6. The conditions noted are these: for Ki: pH 9.0, 10 mM MgCl2. On the procedure:
General. Because antibody 6A1A6, see Table 2, was metal dependent, a few precautions were taken to insure consistent results for all assays. […] EDTA was added to reactions to a concentration that removed the catalytic activity. MgCl2 or other metal salts were then added back to the reactions at the optimum level. Antibody concentration was adjusted for each system to obtain useable data in a reasonable reaction time and varied from 0.5-4 μM.
as §1
p-Nitrophenyl Esters as Substrates. A useful system to assess cleavage utilized substrates containing esters with p-nitrophenol leaving groups. This assay was fast, reproducible and much more trouble free than the fluorescence assays. It relied on the fact that the anion cleavage product, p-nitrophenolate, is yellow at basic pH and its appearance can be followed spectrophotometrically at 405 nm.
Antibody 6A1A6 was assayed spectrophotometrically for its ability to cleave the above mentioned substrates containing the p-nitrophenyl leaving group at 405 nm using a Molecular Devices Vmax® kinetic microplate reader. Kinetic assays were performed in triplicate at 25° C. in 40 mM TAPS, 150 mM NaCl, 10 mM MgCl2, 0.5-0.6 μM antibody, pH=9.0.
Phosphodiester Substrate. […] This represents the first report of a catalytic antibody capable of hydrolyzing a phosphodiester bond. pNPPT is normally used as a substrate for snake venom phosphodiesterase. […] The uncatalyzed rate under these conditions was 1.35×10^-6 min^-1. […] The Ki is defined as the negative x-coordinate of the intersection point of the lines in a Dixon plot.
Phosphomonoester Substrate. Under reaction condition identical to those used for pNPPT, the antibody also catalyzes the hydrolysis of p-nitrophenyl phosphate (pNPP). […] The uncatalyzed rate was 3.4×10^-6 min^-1.

For test [3] the target is unchanged. As to the kind of experiment: Hydrolysis of oligomer T15 (DNase activity) by antibody 6A1A6, inhibition by hapten. The conditions noted are these: substrate oligomer T15; pH 9, 1 mM Mg2+; read-out: Ki (competitive inhibition of DNase activity). As to the method: as §1
It was unknown what type of specificity antibody 6A1A6 would have for a DNA polymer. Several possible activities were monitored under conditions of pH 9 and 1 mM Mg^2+ that were optimal for ATP hydrolysis.
Kinetic Parameters. Kinetic experiments were performed with T15 as a substrate. Due to the very slow rate of hydrolysis, experiments were done under single turnover conditions with enzyme excess.
Control Experiments. Standard controls were performed using oligomer T15 as a substrate. Immunoprecipitation reduced activity by 93%. The remaining activity could be due to incomplete immunoprecipitation, but could also be due to a contaminating nuclease. […] Fab fragments retained 46±17% of the original activity.

[4] abbreviates: substrate pNPP, read-out: Ki (competitive inhibition of pNPP hydrolysis).

As for `Nc1ncnc2c1ncn2[C@@H]1O[C@H](COP(=O)(O)OP(=O)(O)O)[C@@H](O)[C@H]1O` [ADP, adenosine diphosphate], in test [1], the Km came out at 70 ± 8 µM and the Vmax is 120 ± 20 s⁻¹.

`Nc1ncnc2c1ncn2[C@@H]1O[C@H](COP(=O)(O)O)[C@@H](O)[C@H]1O` [AMP]: in test [1], the Michaelis-Menten constant (Km) was 161 ± 21 µM and the Vmax is 102 ± 3 s⁻¹.

In the case of `Nc1ncnc2c1ncn2[C@@H]1O[C@H](COP(=O)(O)OP(=O)(O)OP(=O)(O)O)[C@@H](O)[C@H]1O` [ATP, Adenosine triphosphate], in test [1], the Km came out at 1400 ± 123 µM.

For the compound `O=[N+]([O-])c1ccc(O)cc1` [p-nitrophenol], the inhibition constant Ki in test [2] (setting [4]) worked out at 9.31 ± 1.94 µM; in test [2] (substrate pNPPT, product inhibition, read-out: Ki for p-nitrophenol (Dixon plot)) it was 10.1 ± 2.1 µM.

Regarding `Cc1cn([C@H]2C[C@H](O)[C@@H](COP(=O)(O)Oc3ccc([N+](=O)[O-])cc3)O2)c(=O)[nH]c1=O` [pNPPT, thymidine-5'-monophosphate-p-nitrophenyl ester], in test [2] (10 mM MgCl2, 40 mM TAPS, 150 mM NaCl, pH 9.0, 25° C.), the “kcat (apparent), pNPPT as substrate” value was 0.031±0.05 min^-1. Also, the Michaelis-Menten constant (Km) in test [2] (10 mM MgCl2, 40 mM TAPS, 150 mM NaCl, pH 9.0, 25° C., read-out: Km (apparent), pNPPT as substrate) was found to be 290 ± 80 µM.

“thymidine 3'-O-(7-hydroxy-4-methyl coumarin) phosphorodithioate [hapten]”: the inhibition constant (Ki) in test [1] (substrate ATP, read-out: Ki (competitive inhibitor of ATP hydrolysis)) came to 559 µM; in test [2] (setting [4]), 199 ± 54 µM; in test [3] it was 758 ± 57 µM.
